Data published in patent US20180087086A1, “CELL EGRESS AND INVASION INHIBITORS AND THEIR USE AS ANTIPARASITICAL AGENTS” (THE JOHNS HOPKINS UNIVERSITY, priority 2015, published 2018).
Structures can show the parent of a compound that is named as a salt.

Columns and labels:
[1] = target: P. falciparum aldolase in the presence of TRAP (Plasmodium falciparum, UniProt Q7KQL9); test: aldolase enzyme activity assay, P. falciparum aldolase in the presence of TRAP; assay type: biochemical; settings: in the presence of TRAP and the compounds
From the text: (§1) FIGS. 16A-16D depict an aldolase enzyme activity assay. (A) Cartoon and surface representation of aldolase with TRAPpep bound (magenta, sticks) (PDB entry 2pc4), overlapping the F16BP (green, sticks) substrate binding site (PDB entry 4ald), via PyMOL. (B) Coupled enzyme assay to measure aldolase activity via NADH consumption as measured at 340 nm. (C) Concentration-dependent effect of compounds on PfAldolase inhibition in the presence of PbTRAP peptide. Activity is normalized to the PbTRAP control, which reduces Vmax to 50% of enzyme without PbTRAP. (D) PfAldolase activity in the presence of compounds to determine direct inhibition of enzyme by the compounds. Activity is normalized to the PfAldolase control measured Vmax. Standard error means plotted for activity assays and standard deviation for SPR data.
(§2) Dose-Dependent Enzymatic Inhibition of Compounds on P. falciparum Aldolase and Rabbit Aldolase as a Surrogate for Human Aldolase.

[2] = target: T1, rabbit aldolase (Oryctolagus cuniculus, UniProt P00883); test: aldolase enzyme activity assay, rabbit aldolase; assay type: biochemical; settings: surrogate for human aldolase
T1 sequence (P00883 1-364): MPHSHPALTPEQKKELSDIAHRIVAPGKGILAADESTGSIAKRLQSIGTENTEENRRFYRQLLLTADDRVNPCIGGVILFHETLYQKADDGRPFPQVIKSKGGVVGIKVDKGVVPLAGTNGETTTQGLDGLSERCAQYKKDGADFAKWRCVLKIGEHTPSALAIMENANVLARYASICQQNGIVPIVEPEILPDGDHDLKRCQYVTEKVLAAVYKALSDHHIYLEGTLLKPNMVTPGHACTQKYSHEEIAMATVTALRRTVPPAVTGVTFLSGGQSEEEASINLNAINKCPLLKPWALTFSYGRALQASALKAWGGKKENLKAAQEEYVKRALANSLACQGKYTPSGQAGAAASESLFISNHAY
From the text: as §1, §2

[3] = tested on: P. berghei sporozoites; test: trail radius of gliding sporozoites (ImageJ); assay type: cell-based; settings: 62.5 μM; 130-150 trail radii; p-value <0.0001
Procedure: The trail radius was measured using ImageJ and the statistical analyses to determine standard error mean and t-test were performed using GraphPad.
The gliding phenotype was altered to determine whether the compounds were having off-target effects. While quantifying the number of deposited trails, the trail diameter in the presence of compounds was altered. An altered trail diameter is more likely due to either a direct effect on the motor or an effect on sporozoite shape. The diameter of the circular trails deposited by the parasites in the DMSO control was measured and in the presence of three compounds at 62.5 μM (FIG. 8). This concentration was chosen because at higher concentrations, there were not enough sporozoite trails to measure to do a statistical analysis of the results. Using ImageJ, circles were fit to trails in multiple images to measure 130-150 trail radii. The average trail radii increased in the presence of compounds 4, 17, and 18 with a p-value <0.0001. The increase in average trail size was 6.3 microns, 2.5 microns, and 3.6, for compounds 4, 17, and 18, respectively.

P. falciparum aldolase in the presence of TRAP, sequence (Q7KQL9 whole entry): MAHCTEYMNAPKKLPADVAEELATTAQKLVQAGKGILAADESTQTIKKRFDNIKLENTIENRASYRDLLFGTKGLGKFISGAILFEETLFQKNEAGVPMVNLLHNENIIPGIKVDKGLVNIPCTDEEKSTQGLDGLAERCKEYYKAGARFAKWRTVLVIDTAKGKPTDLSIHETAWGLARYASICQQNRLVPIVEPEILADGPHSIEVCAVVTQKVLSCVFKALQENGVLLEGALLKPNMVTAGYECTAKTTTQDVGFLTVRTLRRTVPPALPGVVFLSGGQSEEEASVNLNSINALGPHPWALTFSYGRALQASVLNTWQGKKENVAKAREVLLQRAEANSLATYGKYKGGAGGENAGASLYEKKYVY

Compound: CCN(CC)S(=O)(=O)c1ccc(-c2csc(Nc3ccc(C)c(C)c3)n2)cc1 [Compound 3, 4-{2-[(3,4-dimethylphenyl)amino]-1,3-thiazol-4-yl}-N,N-diethylbenzenesulfonamide hydrobromide]
- inhibition of P. falciparum aldolase [1]: inhibited
- enzyme inhibition on rabbit aldolase [2]: no enzyme inhibition

Compound: O=C(Nc1ccc(-c2nc3cc4ccccc4cc3[nH]2)cc1)c1cccc(Br)c1 [Compound 17, 3-bromo-N-[4-(1H-naphtho[2,3-d]imidazol-2-yl)phenyl]benzamide]
- increase in average trail size (trail radius) vs DMSO control [3]: 2.5 microns
